Test results taken from ChEMBL document CHEMBL3351856, “Structural revision of kynapcin-12 by total synthesis, and inhibitory activities against prolyl oligopeptidase and cancer cells” (Bioorg Med Chem Lett, 2014).
Bridge positions count the residues as written; N and C are the ends. Peptide text beside a SMILES is read from it.

How the values were obtained:
cells = conditions: Homo sapiens, HL-60, 48 h
Description: Cytotoxicity against human HL60 cells after 48 hrs by MTT assay

Prolyl endopeptidase = target: T1, Prolyl endopeptidase (Homo sapiens, UniProt P48147); assay: Inhibition of prolyl oligopeptidase (unknown origin)
T1 sequence (P48147 whole entry): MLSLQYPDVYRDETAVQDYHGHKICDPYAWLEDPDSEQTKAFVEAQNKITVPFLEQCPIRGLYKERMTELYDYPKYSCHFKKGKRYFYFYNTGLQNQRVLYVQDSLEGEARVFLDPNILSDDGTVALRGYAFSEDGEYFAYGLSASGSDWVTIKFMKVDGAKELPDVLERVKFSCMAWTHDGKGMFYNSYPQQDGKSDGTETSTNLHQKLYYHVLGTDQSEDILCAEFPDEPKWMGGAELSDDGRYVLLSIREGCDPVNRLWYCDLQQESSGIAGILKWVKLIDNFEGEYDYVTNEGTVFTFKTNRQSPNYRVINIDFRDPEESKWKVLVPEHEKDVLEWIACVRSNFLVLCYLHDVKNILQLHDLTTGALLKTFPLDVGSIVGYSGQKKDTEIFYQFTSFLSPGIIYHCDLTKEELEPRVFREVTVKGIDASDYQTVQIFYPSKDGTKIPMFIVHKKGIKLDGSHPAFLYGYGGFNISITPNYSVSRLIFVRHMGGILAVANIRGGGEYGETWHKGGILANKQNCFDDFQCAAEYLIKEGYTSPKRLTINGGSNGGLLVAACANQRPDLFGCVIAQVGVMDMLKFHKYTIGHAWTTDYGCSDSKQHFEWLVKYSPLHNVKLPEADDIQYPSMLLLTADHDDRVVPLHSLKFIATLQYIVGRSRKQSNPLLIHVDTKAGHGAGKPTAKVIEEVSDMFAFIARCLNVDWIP

| IC50 (cells) [µM] | IC50 (Prolyl endopeptidase) [µM] | Compound |
| --- | --- | --- |
| > 20 | – | CC(=O)Oc1c(OC(C)=O)c(-c2ccc(O)cc2)c(O)c(O)c1-c1ccc(O)cc1 |
| 14.4 | > 50 | COCc1c(COC)c(-c2ccc(O[Si](C)(C)C(C)(C)C)cc2)c(COC)c(COC)c1-c1ccc(O[Si](C)(C)C(C)(C)C)cc1 |
| 6.5 | – | COCC1=C(c2ccc(O[Si](C)(C)C(C)(C)C)cc2)C(=O)C(COC)=C(c2ccc(O[Si](C)(C)C(C)(C)C)cc2)C1=O |
| 19.1 | > 50 | COCc1c(OC(C)=O)c(-c2ccc(O[Si](C)(C)C(C)(C)C)cc2)c(COC)c(OC(C)=O)c1-c1ccc(O[Si](C)(C)C(C)(C)C)cc1 |
| > 20 | – | CC(=O)OC1=C(c2ccc(O)cc2)C(=O)C(OC(C)=O)=C(c2ccc(O)cc2)C1=O |
| 2.8 | 15.1 | CC(C)(C)[Si](C)(C)Oc1ccc(C2=C3OCOC3=C(c3ccc(O[Si](C)(C)C(C)(C)C)cc3)C(=O)C2=O)cc1 |
| 2.9 | – | CC(=O)Oc1c(OC(C)=O)c(-c2ccc(O[Si](C)(C)C(C)(C)C)cc2)c2c(c1-c1ccc(O[Si](C)(C)C(C)(C)C)cc1)OCO2 |
| 4.2 | 3.5 | CC(=O)Oc1c(OC(C)=O)c(-c2ccc(O[Si](C)(C)C(C)(C)C)cc2)c2c(c1-c1ccc(O[Si](C)(C)C(C)(C)C)cc1)OC(OC(C)=O)O2 |
| – | 1.4 | CC[C@H](C)[C@H](NC(=O)[C@H](Cc1ccccc1)NC(=O)[C@@H](NC(=O)[C@H](Cc1cnc[nH]1)NC(=O)CNC(=O)CNC(=O)[C@H](Cc1ccccc1)NC(=O)[C@H](CC(C)C)NC(=O)[C@@H]1CC(=O)NCC(=O)N[C@@H](Cc2ccc(O)cc2)C(=O)N2CCC[C@H]2C(=O)N[C@@H](Cc2c[nH]c3ccccc23)C(=O)N[C@@H](Cc2c[nH]c3ccccc23)C(=O)N[C@@H](CC(=O)O)C(=O)N[C@@H](Cc2ccc(O)cc2)C(=O)N[C@@H](CCCNC(=N)N)C(=O)N1)[C@@H](C)O)C(=O)N[C@@H](CO)C(=O)N1CCC[C@H]1C(=O)O (GYPWWDYRDLFGGHTFISP-OH; lactam N-9) |
